According to patent US20060157667A1, “Method and compositions for controlling release of organic compositions” (Board of Trustees of Michigan State University, priority 2005, published 2006):
Values joined by “and” are separate entries in the source; they are usually repeats but may differ in a detail not shown here. Equal entries are not always repeated.

Experiment: Pesticide sorption from water by K- and Ca-SWy-2 smectite clay, batch equilibration method
Assay type: physicochemical
Conditions: for pesticide distribution coefficient for sorption by homoionic K-SWy-2: relative concentration of 0.1 (aqueous equilibrium concentration/aqueous solubility), 0.25 M KCl solution; for change in sorption by sorbents derived from Ca-SWy-2 as fK increased from zero to 0.71: Ca-SWy-2 exchanged with KCl; for sorption by K-SWy-2 relative to sorption by Ca-SWy-2: relative aqueous concentration of 0.1
Protocol: Pesticide sorption from water solution by K— and Ca—SWy-2 mixed with different ratios of aqueous KCl to CaCl2 (kept at a fixed ionic strength of 0.25 M) were measured using a batch equilibration method. A series of initial pesticide concentrations were prepared in the following electrolyte solutions: 0.25 M KCl, 0.24 M KCl/0.003 M CaCl2; 0.20 M KCl/0.016 M CaCl2; 0.15 M KCl/0.033 M CaCl2; 0.10 M KCl/0.05 M CaCl2; 0.05 M KCl/0.067 M CaCl2; 0.01 M KCl/0.08 M CaCl2; and 0.083 M CaCl2. Clays were weighed into glass centrifuge tubes, solute solutions over a range of initial pesticide concentrations were added, and the tubes were closed with Teflon-lined screw caps. The tubes were then shaken reciprocally at 40 rpm for 24 h at room temperature (23±2° C.), followed by centrifugation at 2600 g for 30 min. Previous studies have shown that equilibrium was reached within this period of time (Sheng, G., et al., J. Agri. Food Chem. 49, 2899-2907 (2001); and Sheng, G., et al., Clays Clay Miner. 50, 25-34 (2002)). Supernatants were sampled and subject to analysis for pesticide concentrations using a Perkin-Elmer High Performance Liquid Chromatography (HPLC) system consisting of a Binary 250 LC pump, a Series 200 autosampler and a Series 200 UV-Visible detector. The optimal wavelength was set at 238 nm for dichlobenil, 250 nm for monuron and 248 nm for biphenyl. An Alltech platinum extended polar selectivity C18 column (15 cm by 4.6 mm i.d.) was used for dichlobenil and monuron, and an Alltech adsobosphere C18 column (25 cm by 4.6 mm i.d.) was used for biphenyl. The mobile phase composition was a mixture of methanol and water, and was optimized for each pesticide. Controls consisted of identical pesticide solutions in the corresponding electrolytes, but with no clay present. No changes in solute concentrations were detected in the tubes devoid of clay within the experimental period; therefore, solute mass lost in the supernatant from clay slurries was assumed to be sorbed by clay. The amount of pesticide sorbed was calculated from the difference between the initial and equilibrium solute concentration in aqueous solution.
The actual population of exchangeable K^+ and Ca^2+ associated with the clay was measured in a separate experiment using the BaCl2 extraction method (Rhoades, J. D., Method of Soil Analysis part 2: Chemical and Microbiological Properties; 2nd ed., American Society of Agronomy: Madison, Wis. 149-158 (1982)). The same amounts of clays and electrolyte solutions used in the sorption studies were added into glass centrifuge tubes, the tubes were shaken for 24 h at room temperature then centrifuged at 2600 g for 30 min. Aqueous supernatants were removed, diluted and analyzed by a Perkin-Elmer 3110 atomic absorption spectrophotometer (AAS). The mass of K^+ and Ca^2+ remaining in the residual supernatant was accounted for by assuming their concentrations to be the same as that measured in the bulk supernatant; residual supernatant that could not be removed was determined gravimetrically. The clay pellets were extracted three times using 0.1 M BaCl2, then washed three times with Milli-Q water. The supernatants from the water washing were combined with the supernatants from the BaCl2 extraction step, diluted and analyzed by AAS. The K^+ and Ca^2+ concentrations were measured using the external standards prepared with the matching matrix background of extraction reagents.
We compared sorption coefficients for clays derived from homoionic Ca—SWy-2 vs. those derived from homoionic K—SWy-2 after the homoionic clays had been treated with different amounts of CaCl2/KCl aqueous solutions. […] Replacement of K^+ from K—SWy-2 by Ca^2+ (from fK=1 to 0.66) manifested gradually diminishing sorption of dichlobenil to ˜40% of that by homoionic K—SWy-2.

[1] = relative aqueous concentration 0.1

Row | Compound | sorption across variation of K+ fractions on minerals from zero to one (relative concentration 0.1, FIG. 4) | pesticide distribution coefficient for sorption by homoionic K-SWy-2 [L/kg] | change in sorption by sorbents derived from Ca-SWy-2 as fK increased from zero to 0.71 [1] | sorption relative to that by homoionic K-SWy-2 after replacement of K+ by Ca2+ (K-SWy-2 derived clay, fK from 1 to 0.66, relative concentration 0.1) [%] | sorption by clay derived from K-SWy-2 (fK=0.66) relative to clay derived from Ca-SWy-2 (fK=0.71) (comparable fK, different starting clay) | sorption by K-SWy-2 relative to sorption by Ca-SWy-2 | sorption enhancement by Ca-SWy-2 derived sorbents at fK as high as 0.71 (Ca2+ replaced by K+, sorption isotherms, FIG. 2) | change in sorption when K-SWy-2 underwent exchange with CaCl2, fK from 1 to 0.81 [1]
1 | c1ccc(-c2ccccc2)cc1 [Biphenyl, 1,1′-biphenyl] | remained nearly constant | 6.4 | – | – | – | – | – | –
2 | N#Cc1c(Cl)cccc1Cl [Dichlobenil, 2,6-dichlorobenzonitrile] | – | 580 | increased by approximately four times | ~40 | ~10 times and 8 times | approximately 75 times higher | – | –
3 | CN(C)C(=O)Nc1ccc(Cl)cc1 [Monuron, N′-(4-chlorophenyl)-N,N-dimethylurea] | – | 27 | No apparent enhancement | – | – | ~4 times higher | ca. 205 | reduced by about half
